Assay results: PMC3446843 (Toxicological Sciences, 2012)

Key:
[1] = test system: isolated mouse liver mitochondria; assay: Loss of mitochondrial transmembrane potential; assay type: biochemical; details: for ΔΨm loss EC20: 20% of maximal loss of ΔΨm (50µM mClCCP = 100%), 30-min incubation
[2] = test system: isolated mouse liver mitochondria, complex I; assay: Oxygen consumption through complex I; details: for O2 cons CI EC20: inhibition of oxygen consumption, malate + glutamate + ADP, 2µM rotenone = 100%; for effect on oxygen consumption (in words): with malate/glutamate and/or succinate

Structure (SMILES)	ΔΨm loss EC20 [1]	O2 cons CI EC20 [2]	effect on oxygen consumption (in words) [2]	concentrations collapsing the ΔΨm and altering the mitochondrial respiration ([1]; ΔΨm and respiration)
CC(=O)Oc1ccc(C(c2ccc(OC(C)=O)cc2)c2ccccn2)cc1 [Bisacodyl]	312.4 µM	52.5 µM	–	–
CCCCN1CCCCC1C(=O)Nc1c(C)cccc1C (centres unmarked) [Bupivacaine]	258.2 µM	> 800 µM	–	–
Cn1c(=O)c2c(ncn2C)n(C)c1=O [Caffeine]	> 400 µM	> 400 µM	–	–
COc1cc(CNC(=O)CCCC/C=C/C(C)C)ccc1O [Capsaicin]	275.0 µM	15.7 µM	–	–
NC(=O)N1c2ccccc2C=Cc2ccccc21 [Carbamazepine]	66.9 µM	–	increased oxygen consumption	–
C=CC1=C(C(=O)O)N2C(=O)[C@@H](NC(=O)/C(=N\OCC(=O)O)c3csc(N)n3)[C@H]2SC1 [Cefixime]	> 400 µM	216.8 µM	–	–
O=C(O)CCCc1ccc(N(CCCl)CCCl)cc1 [Chlorambucil]	> 200 µM	140.9 µM	–	–
O=P(O)(O)C(Cl)(Cl)P(=O)(O)O [Clodronate]	> 400 µM	227.2 µM	–	–
COc1cc(/C=C/C(=O)CC(=O)/C=C/c2ccc(O)c(OC)c2)ccc1O [Curcumin]	> 200 µM	> 200 µM	–	–
CC(C)(S)[C@@H](N)C(=O)O [D-penicillamine]	> 400 µM	> 800 µM	–	–
Nc1ccc(S(=O)(=O)c2ccc(N)cc2)cc1 [Dapsone]	> 400 µM	205.5 µM	–	–
C[C@@H]1C[C@H]2[C@@H]3CCC4=CC(=O)C=C[C@]4(C)[C@@]3(F)[C@@H](O)C[C@]2(C)[C@@]1(O)C(=O)CO [Dexamethasone]	> 200 µM	> 200 µM	–	–
Cc1c(N(C)CS(=O)(=O)[O-])c(=O)n(-c2ccccc2)n1C.[Na+] [Dipyrone]	354.4 µM	107.3 µM	–	–
C#Cc1cccc(Nc2ncnc3cc(OCCOC)c(OCCOC)cc23)c1 [Erlotinib]	195.9 µM	–	increased oxygen consumption	–
CC[C@H]1OC(=O)[C@H](C)[C@@H](O[C@H]2C[C@@](C)(OC)[C@@H](O)[C@H](C)O2)[C@H](C)[C@@H](O[C@@H]2O[C@H](C)C[C@H](N(C)C)[C@H]2O)[C@](C)(O)C[C@@H](C)C(=O)[C@H](C)[C@@H](O)[C@]1(C)O [Erythromycin]	> 400 µM	27.9 µM	–	–
CCOC(=O)c1ccc(O)cc1 [Ethyl paraben]	297.5 µM	47.8 µM	–	–
OC(Cn1cncn1)(Cn1cncn1)c1ccc(F)cc1F [Fluconazole]	512.7 µM	186.6 µM	–	–
Nc1nc2ncc(CNc3ccc(C(=O)N[C@@H](CCC(=O)O)C(=O)O)cc3)nc2c(=O)[nH]1 [Folic acid]	276.2 µM	213.0 µM	–	–
O=C(O)c1cc(O)c(O)c(O)c1 [Gallic acid]	> 200 µM	153.9 µM	–	–
CC(C)Cc1ccc(C(C)C(=O)O)cc1 (centres unmarked) [Ibuprofen]	355.9 µM	132.1 µM	–	–
CC(=O)N1CCN(c2ccc(OCC3COC(Cn4ccnc4)(c4ccc(Cl)cc4Cl)O3)cc2)CC1 (centres unmarked) [Ketoconazole]	243.0 µM	2.9 µM	–	–
Nc1ccn([C@@H]2CS[C@H](CO)O2)c(=O)n1 [Lamivudine]	347.2 µM	317.4 µM	–	–
CCN(CC)CC(=O)Nc1c(C)cccc1C [Lidocaine]	339.5 µM	–	increased oxygen consumption	–
CC[C@H](C)C(=O)O[C@H]1C[C@@H](C)C=C2C=C[C@H](C)[C@H](CC[C@@H]3C[C@@H](O)CC(=O)O3)[C@H]21 [Lovastatin]	43.6 µM	6.2 µM	–	–
Cc1ccc(Nc2c(F)cccc2Cl)c(CC(=O)O)c1 [Lumiracoxib]	148.8 µM	12.0 µM	–	–
[Cl][Mn][Cl] [Manganese chloride]	> 800 µM	> 400 µM	–	–
CN(C)C(=N)N=C(N)N [Metformin]	388.4 µM	351.8 µM	–	–

Structure (SMILES)	ΔΨm loss EC20 [1]	O2 cons CI EC20 [2]	effect on oxygen consumption (in words) [2]	concentrations collapsing the ΔΨm and altering the mitochondrial respiration ([1]; ΔΨm and respiration)
COC(=O)c1ccc(O)cc1 [Methyl paraben]	> 200 µM	94.8 µM	–	–
C[C@](N)(Cc1ccc(O)c(O)c1)C(=O)O [Methyldopa]	> 400 µM	63.1 µM	–	–
CCOC(=O)[N-]c1cn(N2CCOCC2)n[o+]1 [Molsidomine]	> 400 µM	> 200 µM	–	–
C=CCN1CC[C@]23c4c5ccc(O)c4O[C@H]2C(=O)CC[C@@]3(O)[C@H]1C5 [Naloxone]	298.7 µM	> 400 µM	–	–
CN1CCC[C@H]1c1cccnc1 [Nicotine]	> 400 µM	312 µM	–	–
O=C(N/N=C/c1ccc([N+](=O)[O-])o1)c1ccc(O)cc1 [Nifuroxazide]	388.2 µM	3.7 µM	–	–
O=C1CN(/N=C/c2ccc([N+](=O)[O-])o2)C(=O)N1 [Nitrofurantoin]	442.5 µM	8.7 µM	–	–
CO[C@@H]1[C@@H](OC(N)=O)[C@@H](O)[C@H](Oc2ccc3c(O)c(NC(=O)c4ccc(O)c(CC=C(C)C)c4)c(=O)oc3c2C)OC1(C)C [Novobiocin]	351.6 µM	173.5 µM	–	–
CCN(CC)CC#CCOC(=O)C(O)(c1ccccc1)C1CCCCC1 (centres unmarked) [Oxybutynine]	178.3 µM	115.4 µM	–	–
C#CCN(C)Cc1ccccc1 [Pargyline]	243 µM	206.8 µM	–	–
Oc1cc(O)cc(O)c1 [Phloroglucinol]	> 800 µM	> 400 µM	–	–
CN1C(C(=O)Nc2ccccn2)=C(O)c2ccccc2S1(=O)=O [Piroxicam]	101.7 µM	6.6 µM	–	–
CCCOC(=O)c1ccc(O)cc1 [Propyl paraben]	162.8 µM	28.4 µM	–	–
NC(=O)c1cnccn1 [Pyrazinamide]	> 400 µM	190.9 µM	–	–
CNC(=C[N+](=O)[O-])NCCSCc1ccc(CN(C)C)o1 [Ranitidine]	368.1 µM	97.3 µM	–	–
O=C1NS(=O)(=O)c2ccccc21 [Saccharin]	> 400 µM	179.4 µM	–	–
O=C(O)c1ccccc1O [Salicylic acid]	304.3 µM	120.9 µM	–	–
CC(C)(C)NC(=O)[C@@H]1C[C@@H]2CCCC[C@@H]2CN1C[C@@H](O)[C@H](Cc1ccccc1)NC(=O)[C@H](CC(N)=O)NC(=O)c1ccc2ccccc2n1 [Saquinavir]	10.3 µM	–	increased oxygen consumption	lower than 50 μM
CN[C@@H]1[C@H](O)[C@H](NC)[C@H]2O[C@@]3(O)C(=O)C[C@@H](C)O[C@H]3O[C@@H]2[C@H]1O [Spectinomycin]	> 400 µM	–	increased oxygen consumption	–
OC[C@H]1O[C@@](CO)(O[C@H]2O[C@H](CO)[C@@H](O)[C@H](O)[C@H]2O)[C@@H](O)[C@@H]1O [Sucrose]	> 800 µM	> 800 µM	–	–
Cc1cc(NS(=O)(=O)c2ccc(N)cc2)no1 [Sulfamethoxazole]	> 400 µM	> 400 µM	–	–
CC1=C(CC(=O)O)c2cc(F)ccc2/C1=C\c1ccc([S+](C)[O-])cc1 (centres unmarked) [Sulindac]	> 200 µM	35.6 µM	–	–
NCCS(=O)(=O)O [Taurine]	> 800 µM	> 800 µM	–	–
C[C@@H]1O[C@@H](OC[C@H]2O[C@@H](Oc3c(-c4ccc(OCCO)c(OCCO)c4)oc4cc(OCCO)cc(O)c4c3=O)[C@H](O)[C@@H](O)[C@@H]2O)[C@H](O)[C@H](O)[C@H]1O [Troxerutin]	> 400 µM	170.5 µM	–	–
CCCC(CCC)C(=O)O [Valproic acid]	267.2 µM	44.9 µM	–	–
Cc1cn([C@H]2C[C@H](N=[N+]=[N-])[C@@H](CO)O2)c(=O)[nH]c1=O [Zidovudine]	416.1 µM	–	increased oxygen consumption	–
